How the values were obtained:
Assay in all cases: electrospray mass spectrometry
[1] = test system: UpsB-Q-4 (DNA, G4) CAGGGTTTAGGGTATAACTTTAGGGGTTAGGGTT; conditions: NH4+ 150 mM (NH4OAc); 20% methanol; 10 μM DNA
[2] = test system: UpsB-Q-3 (DNA, G4) CAGGGTTAAGGGTATACATTTAGGGGTTAGGGTT; conditions: NH4+ 150 mM (NH4OAc); 20% methanol; 10 μM DNA
[3] = test system: UpsB-Q-2 (DNA, G4) TAGGGTTAAGGGTATAACGTTAAGGGTTAGGGTT; conditions: NH4+ 150 mM (NH4OAc); 20% methanol; 10 μM DNA
[4] = test system: UpsB-Q-1 (DNA, G4) CAGGGTTAAGGGTATAACTTTAGGGGTTAGGGTT; conditions: NH4+ 150 mM (NH4OAc); 20% methanol; 10 μM DNA, equimolar 10 μM BOQ1 in Figure 6B

## c1cc2nc3c4ccc5cc6cc(ccc6nc53)CNCCNCCNCc3ccc5nc6c(ccc7cc8cc(ccc8nc76)CNCCNCCNCc1cc2c4)cc5c3
[1]
  Kd: 2700 ± 1100 nM
[2]
  Kd: 1700 ± 700 nM
[3]
  Kd: 1400 ± 400 nM
[4]
  Kd: 2600 ± 500 nM
